Results taken from patent US20140378424A1, “ESTROGEN RECEPTOR MODULATORS FOR REDUCING BODY WEIGHT” (RosScreening, Inc., priority 2011, published 2014).

Assays:
[1] = Example 4: 8 week weight loss experiment in obese mice, compounds via drinking water; type: in vivo, Male C57BL6/J mice; conditions: obese mice on high-fat diet, 8 weeks, most compounds 0.5 and 2.5 mg/kg/day, hexestrol 0.125 to 2 mg/kg/day
Protocol: An 8 week experiment was performed to investigate the ability of various estrogen modulating compounds to induce weight loss in obese mice. Male C57BL6/J mice were placed on a high fat diet for approximately 12 weeks prior to the study and initiated in the experiment at 18 weeks of age. Obese mice were allocated into cohorts of 6 mice per compound and housed at a density of 3 per cage. Over 8 weeks, mice were placed on a high-fat diet ad libitum and compounds were provided via drinking water. Most compounds were assigned to two treatment groups with doses of 0.5 mg/kg/day and 2.5 mg/kg/day. Hexestrol was assigned to 5 treatment groups ranging between 0.125 mg/kg/day and 2 mg/kg/day. Weight measurements of each mouse were taken once per week over 8 weeks.

[2] = Example 1 Phase 2: weight loss in obese mice, drug via drinking water for 8 weeks; type: in vivo, Male C57BL6/J mice
Protocol: (§1) Male C57BL6/J mice were tested as follows. The animal room was lighted entirely with artificial fluorescent lighting on controlled 12 hr light/dark cycle (6 a.m. to 6 p.m. light). The normal temperature and relative humidity ranges in the animal rooms were maintained at 22±4° C. and 50±15%, respectively. The animal room was set for 15 air exchanges per hour. Filtered tap water acidified to a pH of 2.5 to 3.0 was provided ad libitum. High fat diet was provided ad libitum.
After a 1 week acclimation, the mice were grouped into cohorts of 6 mice each. 6 DIO (diet induced obesity) and 6 lean C57BL6/J mice were used as naïve controls. Each drug was administered via drinking water for 8 weeks. […] Water intake, food intake, and body weights were recorded weekly. […]
Body weight change was calculated for each mouse by subtracting the body weight on the first day of dosing (baseline) from the body weight on the last day of dosing (final) and calculating the percent change from baseline body weight: [=100*(Final Weight−BaselineWeight)/BaselineWeight]. Average percent body weight change was then calculated for each treatment group. […]
Food intake per mouse per day was calculated based on food intake per cage. Mean food intake for each treatment group was then calculated weighted by the number of mice per cage. Similarly, water intake per mouse per day was calculated based on water intake per cage. […]

[3] = Example 1 Phase 1: prevention of weight gain in lean mice placed on high fat diet, drug via drinking water for 8 weeks; type: in vivo, Male C57BL6/J mice; conditions: for lean mouse body weight accumulation over the 8 week period: drug in drinking water, vs control mice
Protocol: as §1
After a 1 week acclimation, the mice were grouped into cohorts of 6 mice each. 6 DIO (diet induced obesity) and 6 lean C57BL6/J mice were used as naïve controls. Each drug was administered via drinking water for 8 weeks. The drug containing drinking water solutions were made fresh weekly. Water intake, food intake, and body weights were recorded weekly.
This experiment was run in two phases, Phase 1 (prevention of weight gain in lean mice) and Phase 2 (weight loss in obese mice). In the phase 1 experiment, the mice were placed on high fat diet at the same time administration of the drug was initiated. In the phase 2 experiment, drug treatment was initiated on 18 week old mice, which were previously on a high fat diet for approximately 12 weeks. In addition to the measurements noted above, a single DEXA Scan analysis was ran on the mice in Phase 2. After treatment, mice underwent body tissue composition analysis by Echo MRI (NMR) to measure their fat and lean mass content.
Body weight change was calculated for each mouse by subtracting the body weight on the first day of dosing (baseline) from the body weight on the last day of dosing (final) and calculating the percent change from baseline body weight: [=100*(Final Weight−BaselineWeight)/BaselineWeight]. Average percent body weight change was then calculated for each treatment group. Error bars represent standard error of the mean (SEM).
Food intake per mouse per day was calculated based on food intake per cage. Mean food intake for each treatment group was then calculated weighted by the number of mice per cage. Similarly, water intake per mouse per day was calculated based on water intake per cage. Mean water intake for each treatment group was then calculated weighted by the number of mice per cage.
In both phase 1 and 2 studies, the drugs were administered through the water given to the mice. The concentration of each drug in the water is provided below:
Diethylstilbestrol: 2 mg/500 mL (1 mg/kg/day)
Raloxifene: 20 mg/500 mL (10 mg/kg/day)
Tamoxifen: 4 mg/500 mL (2 mg/kg/day)
Clomiphene: 10 mg/500 mL (5 mg/kg/day)
Hexestrol: 4 mg/500 mL (2 mg/kg/day)
A mouse typically drinks about 5 mL of water a day.
Phase 1 (Prevention of Weight Gain in Lean Mice)

[4] = Example 3: 8 week weight loss experiment in obese mice, compound in drinking water or feed; type: in vivo, male C57BL6/J mice; conditions: for body weight in comparison to controls / body weight reduction from controls: 8 weeks; for fat tissue mass (NMR body composition analysis): after 8 weeks
Protocol: (§2) An 8 week long weight loss experiment was performed on obese 18 week old male C57BL6/J mice having been on a high fat diet for approximately 12 weeks. The estrogen modulating compound treatment groups (hexestrol, clomiphene, raloxifene, and tamoxifen) were either provided in drinking water or feed. Obese mice were allocated into cohorts of 6 mice per compound per treatment type and housed at a density of 1 mouse per cage. Water treatment group mice were placed on a high fat diet ad libitum with compound provided via drinking water. Each feed treatment group received a specially formulated high fat diet containing their corresponding compound ad libitum and normal drinking water. Weight measurements of each mouse were taken twice per week over 8 weeks. Food intake per mouse per day was also recorded.
(§3) At the end of 8 weeks mice underwent a body tissue composition analysis by Echo MRI (NMR), an intraperitoneal glucose tolerance test (IPGTT), and an oral glucose tolerance test (OGTT). For IPGTT, each mouse received an intraperitoneal glucose solution injection of 1 g glucose/kg body weight. Serum glucose concentration was measured pre-injection, and 30, 60, and 90 minutes post-injection. For OGTT, each mouse received an oral glucose solution dose of 1 g glucose/kg body weight. Serum glucose was measured before the oral dose, and 15, 30, 90, and 120 minutes after oral dose.

[5] = Example 3: intraperitoneal glucose tolerance test (IPGTT) in obese mice after 8 weeks of treatment; type: in vivo, male C57BL6/J mice; conditions: hexestrol water treated mice, 1 mg/kg/day
Protocol: as §2, §3

[6] = Example 3: oral glucose tolerance test (OGTT) in obese mice after 8 weeks of treatment; type: in vivo, male C57BL6/J mice; conditions: hexestrol water treated mice, 1 mg/kg/day, 1 g glucose/kg oral
Protocol: as §2, §3

SMILES | body weight in comparison to the control group [1] | lean mouse body weight accumulation over the 8 week period [3] | body weight in comparison to controls ([4]; feed treatment group) | body weight in comparison to controls ([4]; water treatment group) | fat tissue mass (NMR body composition analysis) ([4]; feed treated mice) | also measured
C[C@]12CC[C@@H]3c4ccc(O)cc4CC[C@H]3[C@@H]1CC[C@@H]2O [17β-estradiol] | significant reduction |  |  |  |  | 
C/C=C(/C(=C/C)c1ccc(O)cc1)c1ccc(O)cc1 [Dienestrol, dienestrol] | significant reduction |  |  |  |  | 
CCN(CC)CCOc1ccc(C(=C(Cl)c2ccccc2)c2ccccc2)cc1 [clomiphene] |  | significant decrease | significant reduction | significant reduction | significant decrease | change in body weight ([2]; 8 weeks, clomiphene 5 mg/kg/day in drinking water): significant; fat tissue mass (NMR body composition analysis) ([2]; after 8 weeks, in comparison to control mice): reduction in fat tissue mass
CC/C(=C(/CC)c1ccc(O)cc1)c1ccc(O)cc1 [diethylstilbestrol] |  | significant decrease |  |  |  | 
CC[C@H](c1ccc(O)cc1)[C@@H](CC)c1ccc(O)cc1 [hexestrol] | significant reduction | significant decrease | significant reduction | significant reduction | significant decrease | reduction of body weight accumulation from control mice ([3]; 8 weeks, hexestrol 2 mg/kg/day in drinking water): 35.0±11.3%; serum glucose concentration upon injection of the glucose solution (IPGTT) ([5]; 1 g glucose/kg intraperitoneal, up to 90 minutes post-injection): remains static; starting serum glucose concentration (IPGTT) ([5]; pre-injection, in comparison to controls): significantly lower; increase of serum glucose concentration upon an oral dose of glucose (OGTT) ([6]; in comparison to controls): increases to a lesser amount; time at which serum glucose returns back to baseline (OGTT) ([6]; post-dose): ≤ 90 min; body weight reduction from controls ([4]; feed treatment group): 31.7±4.5%; body weight reduction from controls ([4]; water treatment group): 30.8±9.7%; fat tissue mass (NMR body composition analysis) ([4]; water treated mice): significant decrease
O=C(c1ccc(OCCN2CCCCC2)cc1)c1c(-c2ccc(O)cc2)sc2cc(O)ccc12 [raloxifene] |  | significant decrease | significant reduction | significant reduction |  | 
CC/C(=C(\c1ccccc1)c1ccc(OCCN(C)C)cc1)c1ccccc1 [tamoxifen] |  | significant decrease | significant reduction | significant reduction | significant decrease | fat tissue mass (NMR body composition analysis) ([4]; water treated mice): significant decrease
CN(C)CCOc1ccc(/C(=C(/CCCl)c2ccccc2)c2ccccc2)cc1 [toremifene] | significant reduction |  |  |  |  | 
